Test results as given in patent publication US12594339B2, “Lipid prodrugs of JAK inhibitors and uses thereof” (Seaport Therapeutics, Inc., priority 2019, dated 2026).

Assay: Lymphatic transport assay in mesenteric lymph-duct cannulated rats
Type: in vivo, rat
Settings: marked with asterisk: analytical procedure without a hydrolysis step (intact lipid prodrug), intraduodenal infusion, anaesthetised mesenteric lymph-duct cannulated rats
Procedure: In order to assess the lymphatic transport of disclosed lipid prodrugs in rats, the mesenteric lymph ducts of the rats used in this study were cannulated to allow continual collection of mesenteric lymph. Lipid formulations containing the compound of interest were then administered to the animals, lymph was collected, and drug concentrations in the lymph samples were quantified.
Lipid-based formulations of the compounds of the invention or control compounds were prepared as previously described (Trevaskis, N. L. et al., Pharmaceutical Research, 2005, 22(11), 1863-1870, WO 2016/023082, and WO 2017/041139, hereby incorporated by reference).
In brief, either 1 or 2 mg of test prodrug, 40 mg oleic acid and 25 mg Tween 80 were mixed in a glass vial and incubated at 37° C. for 12-18 h to equilibrate. An aqueous phase consisting of 5.6 ml phosphate buffered saline (PBS, pH 7.4) was subsequently added to the lipid phase (tofacitinib was dissolved in PBS for the preparation of tofacitinib-containing formulations) and the formulation emulsified by ultrasonication with a Misonix XL 2020 ultrasonic processor (Misonix, Farmingdale, NY, USA) equipped with a 3.2-mm microprobe tip running at 30% of the maximal amplitude of 240 μm and a frequency of 20 kHz for 2 min at room temperature. Doses for administering to more than one animal can be prepared in one batch by suitably increasing the quantities given above. Drug/prodrug concentrations in all formulations were verified using HPLC-MS.
Male Sprague-Dawley (SD) rats were selected for the lymphatic transport studies. Rats (typically 240-320 g) were maintained on a standard diet and fasted overnight with free access to water prior to experiments.
Anesthetized rats were placed on a heated pad at 37° C. and cannulas inserted into the duodenum (for formulation administration and rehydration), mesenteric lymph duct (for lymph collection), and carotid artery (in cases where blood collection was conducted). Post-surgery, rats were re-hydrated for 0.5 h via intraduodenal infusion of normal saline at 2.8 mL/h. The lipid formulations were infused into the duodenum at 2.8 mL/h for 2 h after which, normal saline was infused at 2.8 mL/h for the remainder of the experiment. Lymph was continuously collected for up to 8 h into pre-weighed Eppendorf tubes containing 10 μL of 1,000 IU/mL heparin. The collection tubes were changed hourly and lymph flow was measured gravimetrically. Aliquots of hourly lymph samples were stored at −20° C. prior to assay.
For most compounds, drug concentration in lymph is expressed as total drug and includes free drug and drug associated with different glycerides. Lymph samples were first treated with a lipase or other appropriate conditions to liberate free active agent prior to measurement of active agent levels in the lymph. Treatment with a lipase or other hydrolysis conditions liberates free active agent from any corresponding re-esterified glycerides. Porcine pancreatic lipase is appropriate for this purpose. Alternatively, hydrolysis with 0.5 M NaOH may be used.
For certain compounds, drug concentration was measured for the intact lipid prodrug specifically, without exposing the lymph samples to hydrolysis conditions.
Transport of compounds into lymph during each hourly collection period was calculated from the product of the volume of lymph collected and the measured concentrations in lymph. For fluorescent or fluorescently-labelled compounds, the concentrations of total compound may be measured by fluorescence spectroscopy without hydrolysis.
Table 5 summarizes lymphatic transport of total tofacitinib related compound (% of administered dose) following intraduodenal infusion to anaesthetised, mesenteric lymph-duct cannulated rats. Data are presented as mean±SD when n≥3 or mean± range when n=2. […]

Q: With `CCCCCCCCCCCCCCCC(=O)OCC(COC(=O)CCCCCCCCCCCCCCC)OC(=O)CC(C)CCCCCCC(=O)n1ccc2c(N(C)[C@H]3CN(C(=O)CC#N)CC[C@H]3C)ncnc21` (stereo partly drawn) [I-9, 2-((10-(4-(((3R,4R)-1-(2-cyanoacetyl)-4-methylpiperidin-3-yl)(methyl)amino)-7H-pyrrolo[2,3-d]pyrimidin-7-yl)-3-methyl-10-oxodecanoyl)oxy)propane-1,3-diyl dipalmitate] as the molecule, how does the “Cumulative lymphatic transport % dose” value read?
A: B* (lymphatic transport assay result between 1% and 10% (1%-10%))

Q: With `CCCCCCCCCCCCCCCC(=O)OCC(COC(=O)CCCCCCCCCCCCCCC)OC(=O)CC(C)CCCCCCCCCCC(C)C(=O)n1ccc2c(N(C)[C@H]3CN(C(=O)CC#N)CC[C@H]3C)ncnc21` (stereo partly drawn) [I-39, 2-((15-(4-(((3R,4R)-1-(2-cyanoacetyl)-4-methylpiperidin-3-yl)(methyl)amino)-7H-pyrrolo[2,3-d]pyrimidin-7-yl)-3,14-dimethyl-15-oxopentadecanoyl)oxy)propane-1,3-diyl dipalmitate] as the molecule, how does the “Cumulative lymphatic transport % dose” value read?
A: A* (lymphatic transport assay result of greater than 10% (>10%))

Same assay, conditions: numeric value for parent drug, intraduodenal infusion, anaesthetised mesenteric lymph-duct cannulated rats

Q: With `C[C@@H]1CCN(C(=O)CC#N)C[C@@H]1N(C)c1ncnc2[nH]ccc12` [Tofacitinib, tofacitinib, reference compound] as the molecule, how does the “Cumulative lymphatic transport % dose” value read?
A: <0.3 % dose

Same assay, conditions: numeric value for parent drug, intraduodenal infusion, anaesthetised mesenteric lymph-duct cannulated rats; listed as tofacitinib

Q: Which “Cumulative lymphatic transport % dose” value does the source give for `C[C@@H]1CCN(C(=O)CC#N)C[C@@H]1N(C)c1ncnc2[nH]ccc12` [Tofacitinib, tofacitinib, reference compound] here?
A: < 0.3 % dose

Same assay, conditions: total tofacitinib related compound (lymph hydrolysed before assay), intraduodenal infusion, anaesthetised mesenteric lymph-duct cannulated rats, lymph collected up to 8 h

Q: With `CCCCCCCCCCCCCCCC(=O)OCC(COC(=O)CCCCCCCCCCCCCCC)OC(=O)CC(C)CCCCCCCCC(=O)Oc1c(C)cc(COC(=O)n2ccc3c(N(C)[C@H]4CN(C(=O)CC#N)CC[C@H]4C)ncnc32)cc1C` (stereo partly drawn) [I-16, 1-(1,3-bis(palmitoyloxy)propan-2-yl) 12-(4-(((4-(((3R,4R)-1-(2-cyanoacetyl)-4-methylpiperidin-3-yl)(methyl)amino)-7H-pyrrolo[2,3-d]pyrimidine-7-carbonyl)oxy)methyl)-2,6-dimethylphenyl) 3-methyldodecanedioate] as the molecule, how does the “Cumulative lymphatic transport % dose” value read?
A: A (lymphatic transport assay result of greater than 10% (>10%))

Q: Which “Cumulative lymphatic transport % dose” value does the source give for `CCCCCCCCCCCCCCCC(=O)OCC(COC(=O)CCCCCCCCCCCCCCC)OC(=O)CC(C)CCCCCCCCCCCC(=O)n1ccc2c(N(C)[C@H]3CN(C(=O)CC#N)CC[C@H]3C)ncnc21` (stereo partly drawn) [I-10, 2-((15-(4-(((3R,4R)-1-(2-cyanoacetyl)-4-methylpiperidin-3-yl)(methyl)amino)-7H-pyrrolo[2,3-d]pyrimidin-7-yl)-3-methyl-15-oxopentadecanoyl)oxy)propane-1,3-diyl dipalmitate] here?
A: B (lymphatic transport assay result between 1% and 10% (1%-10%))

Q: For `CCCCCCCCCCCCCCCC(=O)OCC(COC(=O)CCCCCCCCCCCCCCC)OC(=O)CC(C)CCCCCCCC(C)C(=O)Oc1c(C)cc(COC(=O)n2ccc3c(N(C)[C@H]4CN(C(=O)CC#N)CC[C@H]4C)ncnc32)cc1C` (stereo partly drawn) [I-15, 12-(1,3-bis(palmitoyloxy)propan-2-yl) 1-(4-(((4-(((3R,4R)-1-(2-cyanoacetyl)-4-methylpiperidin-3-yl)(methyl)amino)-7H-pyrrolo[2,3-d]pyrimidine-7-carbonyl)oxy)methyl)-2,6-dimethylphenyl) 2,10-dimethyldodecanedioate], which “Cumulative lymphatic transport % dose” value is on record?
A: A (lymphatic transport assay result of greater than 10% (>10%))

Q: Which “Cumulative lymphatic transport % dose” value does the source give for `CCCCCCCCCCCCCCCC(=O)OCC(COC(=O)CCCCCCCCCCCCCCC)OC(=O)CC(C)CCCCCC(=O)n1ccc2c(N(C)[C@H]3CN(C(=O)CC#N)CC[C@H]3C)ncnc21` (stereo partly drawn) [I-7] here?
A: B (lymphatic transport assay result between 1% and 10% (1%-10%))

Q: For `CCCCCCCC/C=C\CCCCCCCC(=O)OCC(COC(=O)CCCCCCC/C=C\CCCCCCCC)OC(=O)CC(C)CCCCCCCCCC(C)CC(=O)n1ccc2c(N(C)[C@H]3CN(C(=O)CC#N)CC[C@H]3C)ncnc21` (stereo partly drawn) [I-33, 2-((15-(4-(((3R,4R)-1-(2-cyanoacetyl)-4-methylpiperidin-3-yl)(methyl)amino)-7H-pyrrolo[2,3-d]pyrimidin-7-yl)-3,13-dimethyl-15-oxopentadecanoyl)oxy)propane-1,3-diyl dioleate], which “Cumulative lymphatic transport % dose” value is on record?
A: A (lymphatic transport assay result of greater than 10% (>10%))

Q: With `CCCCCCCCCCCCCCCC(=O)OCC(COC(=O)CCCCCCCCCCCCCCC)OC(=O)CC(C)CC(=O)OC(C)OC(=O)n1ccc2c(N(C)[C@H]3CN(C(=O)CC#N)CC[C@H]3C)ncnc21` (stereo partly drawn) [I-40, 1-(1,3-bis(palmitoyloxy)propan-2-yl) 5-(1-((4-(((3R,4R)-1-(2-cyanoacetyl)-4-methylpiperidin-3-yl)(methyl)amino)-7H-pyrrolo[2,3-d]pyrimidine-7-carbonyl)oxy)ethyl) 3-methylpentanedioate] as the molecule, how does the “Cumulative lymphatic transport % dose” value read?
A: D (lymphatic transport assay result of less than 0.05% (<0.05%))

Q: Which “Cumulative lymphatic transport % dose” value does the source give for `CCCCCCCCCCCCCCCC(=O)OCC(COC(=O)CCCCCCCCCCCCCCC)OC(=O)CC(C)CCCCCCC(=O)Oc1c(C)cc(COC(=O)n2ccc3c(N(C)[C@H]4CN(C(=O)CC#N)CC[C@H]4C)ncnc32)cc1C` (stereo partly drawn) [I-14, 10-(1,3-bis(palmitoyloxy)propan-2-yl) 1-(4-(((4-(((3R,4R)-1-(2-cyanoacetyl)-4-methylpiperidin-3-yl)(methyl)amino)-7H-pyrrolo[2,3-d]pyrimidine-7-carbonyl)oxy)methyl)-2,6-dimethylphenyl) 8-methyldecanedioate] here?
A: B (lymphatic transport assay result between 1% and 10% (1%-10%))

Q: Which “Cumulative lymphatic transport % dose” value does the source give for `CCCCCCCCCCCCCCCC(=O)OCC(COC(=O)CCCCCCCCCCCCCCC)OC(=O)CC(C)CCCCCCC(C)CC(=O)n1ccc2c(N(C)[C@H]3CN(C(=O)CC#N)CC[C@H]3C)ncnc21` (stereo partly drawn) [I-13, 2-((12-(4-(((3R,4R)-1-(2-cyanoacetyl)-4-methylpiperidin-3-yl)(methyl)amino)-7H-pyrrolo[2,3-d]pyrimidin-7-yl)-3,10-dimethyl-12-oxododecanoyl)oxy)propane-1,3-diyl dipalmitate] here?
A: A (lymphatic transport assay result of greater than 10% (>10%))
